In one test the test system is K562. Briefly: Antiproliferative activity tested as 50% inhibition of DNA synthesis in human K562 erythroleukemia cell line. The format is functional, cell-based.
The next test deals with SW-620. In words: Antiproliferative activity tested as 50% inhibition of DNA synthesis in human SW620 colon carcinoma cell line. The format is functional, cell-based.

For `CCOC(=O)c1csc(-c2nc3c([nH]2)C(=O)C=CC3=O)n1`, the results for the IC50 in the test with K562 and in the test with SW-620 were 16.3 µM and 1.42 µM, respectively.

`COC1=CC(=O)c2[nH]c(-c3nc(C(=O)O)cs3)nc2C1=O`: the half-maximal inhibitory concentration (IC50) (commonly the point on the concentration scale where inhibition reaches its midpoint) in the test with K562 stood at 15.1 µM; in the test with SW-620, 12.1 µM.

With `CCOC(=O)c1csc(-c2nc3c([nH]2)C(=O)C=C(OC)C3=O)n1`, the values for the IC50 in the test with K562 and with SW-620 were 1.16 µM and 13.1 µM, respectively.

Regarding `NC(=O)c1csc(-c2nc3c([nH]2)C(=O)C=CC3=O)n1`, the IC50 with K562 came out at 7.7 µM; in the test with SW-620 it was 3.03 µM.

As for `O=C(O)c1csc(-c2nc3c([nH]2)C(=O)C=CC3=O)n1`, the IC50 in the test on K562 came to 18 µM; with SW-620 it was 8.76 µM.

`COC1=CC(=O)c2[nH]c(-c3nc(C(N)=O)cs3)nc2C1=O`: the figures for the 50% inhibitory concentration (IC50) in the test with K562 and in the test with SW-620 were 1.32 µM and 15.9 µM, respectively.

With `COc1cccc2c1C(=O)c1c(O)c3c(c(O)c1C2=O)C[C@@](O)(C(=O)CO)C[C@@H]3O[C@H]1C[C@H](N)[C@H](O)[C@H](C)O1` [DOXORUBICIN], the values for the IC50 with K562 and with SW-620 were 0.62 µM and 0.75 µM, respectively.
